# Source: US11149028B2, “Methods for treating melanoma using small molecules” (NOVA SOUTHEASTERN UNIVERSITY, priority 2016, dated 2021)
# How the values were obtained:
# WM266-4 cells = assay: Annexin V flow cytometry assay; assay type: cell-based, human; conditions: 100 μM
# From the text: After 4, 24 and 48 hrs of compound exposure the adherent and floating cells were combined and stained using the TACS Annexin V-FITC Apoptosis detection kit (Trevigen Inc, Gaithersburg, Md., USA) using manufacturer's protocol. Viable, necrotic, early and late apoptotic cells were counted using Accuri flow cytometer as per the manufacturer instructions.
# lamin A/C = assay: DARTS (drug affinity responsive target stability); assay type: binding, human
# From the text: (§1) (FIG. 26A, DARTS workflow). Proteins that bind the lead present as bands of differential intensity on SDS-PAGE and are identified using proteomic techniques. […] Bands from non-treated control and sample treated with 2155-14 were excised, trypsinized, and run on LC/MS/MS. […] In addition to lamin A/C, lamin B2, transketolase (TKT), and cytoskeleton-associated protein 4 (CKAP4) were also identified as possible targets (Table 7 shown in FIG. 27). The exclusive unique peptide counts were too close to make the identification of one over the other with confidence.
# (§2) WM266-4 melanoma cell lysates were prepared using a routine protocol with commercially available M-PER buffer supplemented with protease and phosphatase inhibitors. Lysates were split into control and compound test portions, and DMSO and 2155-14 were added to the respective lysate portions and incubated at RT for 1 h to allow for 2155-14 binding to its target(s). Pronase dilutions (1:100. 1:300, 1:1000. 1:3000 and 1:10000, Roche #10165921001) were prepared from 10 mg/mL stock. Lysates were split into 5 aliquots, and pronase dilutions were added to lysate aliquots and incubated at RT for 30 min. […]
# (§3) Each sample was analyzed by liquid-chromatography-tandem MS (LC-MS/MS) using an EASY-nLC 1000 system coupled to a Q Exactive mass spectrometer (Thermo Fisher Scientific). […]
# DDX1 = biological target: T1, DDX1 (Homo sapiens, UniProt Q92499); assay: DARTS with western blot; assay type: binding; conditions: WM266-4 lysates
# T1 construct: WM-266-4 and M14 cells were sonicated in RIPA lysis buffer; endogenous in cells; host or cells: WM266-4 (and M14) melanoma cells and lysates
# T1 sequence (Q92499 whole entry): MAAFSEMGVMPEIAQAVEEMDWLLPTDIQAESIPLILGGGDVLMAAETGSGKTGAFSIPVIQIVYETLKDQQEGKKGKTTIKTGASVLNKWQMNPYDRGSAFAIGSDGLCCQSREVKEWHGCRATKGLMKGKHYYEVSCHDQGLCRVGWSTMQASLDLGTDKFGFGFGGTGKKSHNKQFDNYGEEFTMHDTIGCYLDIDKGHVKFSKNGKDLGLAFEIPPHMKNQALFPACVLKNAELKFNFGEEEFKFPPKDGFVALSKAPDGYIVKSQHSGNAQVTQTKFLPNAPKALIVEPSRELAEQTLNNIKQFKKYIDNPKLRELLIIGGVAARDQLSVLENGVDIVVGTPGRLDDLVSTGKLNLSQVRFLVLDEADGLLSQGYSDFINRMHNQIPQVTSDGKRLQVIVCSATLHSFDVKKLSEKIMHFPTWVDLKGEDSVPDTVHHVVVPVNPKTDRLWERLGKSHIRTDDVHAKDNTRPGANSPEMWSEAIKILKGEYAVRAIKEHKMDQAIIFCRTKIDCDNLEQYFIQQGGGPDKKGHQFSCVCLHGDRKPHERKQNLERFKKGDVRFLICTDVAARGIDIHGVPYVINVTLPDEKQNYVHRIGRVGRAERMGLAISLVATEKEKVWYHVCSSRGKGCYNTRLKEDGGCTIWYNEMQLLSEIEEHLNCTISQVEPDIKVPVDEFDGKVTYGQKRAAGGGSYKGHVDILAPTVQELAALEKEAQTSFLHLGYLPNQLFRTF
# From the text: as §1, §2, §3
# hnRNP A2/B1 = assay: DARTS with western blot; assay type: binding, human; conditions: WM266-4 lysates
# From the text: as §1, §2, §3
# hnRNP H2 = assay: DARTS with western blot; assay type: binding, human; conditions: WM266-4 lysates
# From the text: as §1, §2, §3
compound,measurement,setting,value
"O=C1NC[C@H](Cc2ccccc2)N(C[C@@H]2CCCN2C[C@@H](CC2CCCCC2)N2C[C@H](Cc3ccc(O)cc3)N(CCc3ccccc3)C(=O)C2=O)C1=O [Compound 2155-14, (S)-1((R)-1((S)-2-(((S)-6-benzyl-2,3-dioxopiperazin-1-yl)methyl)pyrrolidin-1-yl)-3-cyclohexylpropan-2-yl)-5-(4-hydroxybenzyl)-4-phenethylpiperazine-2,3-dione]","early apoptotic and necrotic cells, of total population",WM266-4 cells,less than 5%
same,cells undergoing late apoptosis,WM266-4 cells; 24 h,18%
same,cells undergoing late apoptosis,WM266-4 cells; 48 h,32%
same,cells undergoing late apoptosis in presence of Z-VAD-FMK,"WM266-4 cells; 48 h, 10 μM pan-caspase inhibitor",29%
same,DARTS-LC-MS/MS identification of protected band,"lamin A/C; 100 μM, 1:1,000 pronase",Lamin A/C was the protein with the highest score
same,protection of lamin A/C from pronase,"lamin A/C; WM266-4 lysates, western blot",protects these proteins from pronase proteolysis
same,protection of DDX1 from pronase,DDX1,protects these proteins from pronase proteolysis
same,protection of hnRNPA2/B1 from pronase,hnRNP A2/B1,protects these proteins from pronase proteolysis
same,protection of hnRNPH2 from pronase,hnRNP H2,protects these proteins from pronase proteolysis
